Test results reported in ChEMBL document CHEMBL1201862, “PubChem BioAssay data set” (2004).
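Dose response: 5 concentrations. Exposure: 48 h. Format: 96-well plates. Endpoint: linear interpolation; highest concentration if not reached. GI50 marks 50% less growth.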 The source made the active and inactive calls. No stated cut-off is given here; in the data, active = GI50 up to about 1.1 µM and inactive = higher.

What was measured:
Assay in all cases: NCI-60 cell line screen, 48 h
RXF 631 = system: RXF 631
DMS-273 = system: DMS-273
DMS-114 = system: DMS-114
SNB-78 = system: SNB-78
DLD-1 = system: DLD-1
LXFL 529 = system: LXFL 529
KM-20L2 = system: KM-20L2
HOP-18 = system: HOP-18
M19-MEL = system: M19-MEL

SMILES | GI50 (RXF 631) | GI50 (DMS-273) | GI50 (DMS-114) | GI50 (SNB-78) | GI50 (DLD-1) | GI50 (LXFL 529) | GI50 (KM-20L2) | GI50 (HOP-18) | GI50 (M19-MEL)
[O-][S+]1CSSC1 | 12.3 µM (inactive) | 10.9 µM (inactive) | 4.98 µM (inactive) | 20.3 µM (inactive) | 18.7 µM (inactive) | 13.5 µM (inactive) | 22.8 µM (inactive) | 51.4 µM (inactive) | 2.05 µM (inactive)
CC1=C(/C=C/C2=CC(=C\C(=O)O)/CC(C3=C(C)CCCC3(C)C)C2)C(C)(C)CCC1 (configuration not stated) | 11.1 µM (inactive) | 13.9 µM (inactive) | 10.9 µM (inactive) | 20.7 µM (inactive) | 12.2 µM (inactive) | 13.8 µM (inactive) |  | 14 µM (inactive) | 15.3 µM (inactive)
COc1cc(C2C(Cl)C(=O)N2n2cnc3ccccc3c2=O)ccc1O (configuration not stated) |  | > 100 µM (inactive) | 89.1 µM (inactive) | > 100 µM (inactive) | > 100 µM (inactive) | > 100 µM (inactive) | > 100 µM (inactive) | 56.6 µM (inactive) | > 100 µM (inactive)
COc1cc(/C=N/N=C(\N)NO)c(Cl)cc1O |  |  | 24.3 µM (inactive) | > 100 µM (inactive) | > 10 µM (inactive) | > 100 µM (inactive) |  |  | 26.6 µM (inactive)
O=C(/C=C/c1ccc(Cl)c(Cl)c1)c1ccccc1Cl | 15.9 µM (inactive) | 6.47 µM (inactive) | 5.3 µM (inactive) | 15.5 µM (inactive) | 5.12 µM (inactive) | 7.41 µM (inactive) | 9.91 µM (inactive) | 12.7 µM (inactive) | 7.18 µM (inactive)
O=C1NC(=S)NC(=O)C1=Cc1ccc([N+](=O)[O-])o1 | 19.3 µM (inactive) | 18.9 µM (inactive) | 17.8 µM (inactive) | 23.5 µM (inactive) | 16 µM (inactive) | 16.5 µM (inactive) | 20.1 µM (inactive) | 20.7 µM (inactive) | 19.6 µM (inactive)
COc1ccc(-c2oc3c(OC)c(OC)c(OC)c(O)c3c(=O)c2OC)cc1O | 6.07 µM (inactive) | < 0.01 µM (active) | 0.0277 µM (active) | 0.0735 µM (active) | 0.432 µM (active) | 0.0582 µM (active) | 12.1 µM (inactive) |  | 0.346 µM (active)
C/C(=C\Cc1cc(O)ccc1O)CCc1c(C)cc(O)c(C=O)c1C [PANICEIN B3] |  | 20.6 µM (inactive) | 14.7 µM (inactive) |  | 21.6 µM (inactive) | 15.4 µM (inactive) | 39.9 µM (inactive) | 17.8 µM (inactive) | 
CCOC(=O)N1C/C(=C\c2ccccc2)C(=O)/C(=C/c2ccccc2)C1 |  | 2.34 µM (inactive) | 3.27 µM (inactive) | 19.8 µM (inactive) | 2.56 µM (inactive) | 4.99 µM (inactive) | 7.71 µM (inactive) | 20.3 µM (inactive) | 1.57 µM (inactive)
Oc1ccncc1-c1cnccc1O |  | > 100 µM (inactive) | > 100 µM (inactive) | > 100 µM (inactive) | > 100 µM (inactive) | > 100 µM (inactive) |  | > 100 µM (inactive) | > 100 µM (inactive)
O=C1CC(c2ccccc2)=Nc2ccccc2N1 |  | > 100 µM (inactive) |  | > 100 µM (inactive) | > 100 µM (inactive) | > 100 µM (inactive) | > 100 µM (inactive) | > 100 µM (inactive) | > 100 µM (inactive)
COc1cc2c3cc1Oc1c(OC)c(OC)cc4c1[C@@H](Cc1ccc(O)c(c1)Oc1ccc(cc1)C[C@@H]3N(C)CC2)N(C)CC4.c1ccccc1 |  | 16.3 µM (inactive) |  | 47.1 µM (inactive) | 19.1 µM (inactive) | 12.4 µM (inactive) | 5.32 µM (inactive) |  | 13.4 µM (inactive)
Cc1ccc(S(=O)(=O)N(/N=C(\N)Oc2ccc(Cl)cc2)C(=N)Oc2ccc(Cl)cc2)cc1 |  | > 100 µM (inactive) | > 100 µM (inactive) | > 100 µM (inactive) | > 100 µM (inactive) | > 100 µM (inactive) | > 100 µM (inactive) | > 100 µM (inactive) | > 100 µM (inactive)
CC1(C)CC(N2CCN(C3CC(C)(C)NC(C)(C)C3)CC2)CC(C)(C)N1 | > 100 µM (inactive) | > 100 µM (inactive) | > 100 µM (inactive) | > 100 µM (inactive) | > 100 µM (inactive) | > 100 µM (inactive) | > 100 µM (inactive) | > 100 µM (inactive) | 
C=C(COC(C)=O)CC(OC(C)=O)c1ccccc1 (configuration not stated) |  | > 100 µM (inactive) | > 100 µM (inactive) | > 100 µM (inactive) | > 100 µM (inactive) | > 100 µM (inactive) | > 100 µM (inactive) |  | > 100 µM (inactive)
O=C1CC(CC(=O)C2CCCCC2=O)C(=O)N1 (configuration not stated) |  | > 100 µM (inactive) | > 100 µM (inactive) | > 100 µM (inactive) | > 100 µM (inactive) | > 100 µM (inactive) | > 100 µM (inactive) | > 100 µM (inactive) | > 100 µM (inactive)
COc1ccc(NC(=O)CC(=O)n2nc(-c3ccccc3)c(/N=N/c3ccccc3C)c2-c2ccccc2)cc1 | 33.7 µM (inactive) | 16.5 µM (inactive) | 24.3 µM (inactive) |  | 21.6 µM (inactive) | 40 µM (inactive) | > 100 µM (inactive) | 42.5 µM (inactive) | 51.8 µM (inactive)
C#CCN(Cc1ccc2nc(-c3ccccc3)c(N)nc2c1)c1cc(OC)c(OC)c(OC)c1 |  | 22.1 µM (inactive) | 14 µM (inactive) | 22.9 µM (inactive) |  | 19.3 µM (inactive) | 41.3 µM (inactive) |  | 27 µM (inactive)
CCOC(=O)/C(=C/c1cc(OC)ccc1OC)CC(=O)O | > 100 µM (inactive) | > 100 µM (inactive) | > 100 µM (inactive) | > 100 µM (inactive) | > 31.6 µM (inactive) | > 100 µM (inactive) | > 100 µM (inactive) | > 100 µM (inactive) | > 100 µM (inactive)
N#CC(=C1C=CC(=NO)C=C1)c1ccc(Cl)cc1 |  | 6.58 µM (inactive) | 15.4 µM (inactive) |  | 14.2 µM (inactive) | 4.97 µM (inactive) | 19.7 µM (inactive) | 49 µM (inactive) | 15 µM (inactive)
c1cc(N(CCn2cccn2)CCn2cccn2)cc(N(CCn2cccn2)CCn2cccn2)c1 | > 100 µM (inactive) | > 100 µM (inactive) | > 100 µM (inactive) | > 100 µM (inactive) | > 100 µM (inactive) | > 100 µM (inactive) | > 100 µM (inactive) |  | > 100 µM (inactive)
O=C1NC2(CCCC2)C2CCCCC12O (configuration not stated) | > 100 µM (inactive) | > 100 µM (inactive) | > 100 µM (inactive) | > 100 µM (inactive) | > 100 µM (inactive) | > 100 µM (inactive) |  | > 100 µM (inactive) | > 100 µM (inactive)
